Reference: patent publication US8747537B2, “Ink containing heterocyclic azo dye, and dye for use in said ink” (Mitsubishi Chemical Corporation, priority 2010, dated 2014)

assay: Solubility test in low-polarity solvents (saturated solution, λmax, solubility, εC); type: physicochemical; settings: n-decane
Method: The solubility of each dye in n-decane, tetradecane, Isopar M, Isopar G, and decalin was examined in the following manner. Each dye was added to each solvent until a dissolution residue came to remain, and this mixture was subjected to a 30-minute ultrasonic treatment at 30 degrees. The resultant mixture was allowed to stand at 5° C. for 24 hours and then subjected to centrifugal filtration (centrifugal force, 5,200×g) with a 0.1-μm filter using a microcentrifuge. The saturated solution obtained was diluted to an adequate concentration, and the solubility of each dye was calculated from a relationship with an extinction coefficient determined beforehand. Furthermore, the value of the product of the molar extinction coefficient ε (Lmol^−1cm^−1) and the concentration C (molL^−1) of the saturated solution, εC, was determined.
Sudan Black B (manufactured by Tokyo Kasei Kogyo Co., Ltd.), which is a commercial oil-soluble black dye, was added to n-decane until a dissolution residue came to remain, and this mixture was subjected to a 30-minute ultrasonic treatment at 30 degrees. The resultant mixture was allowed to stand at 5° C. for 24 hours and then subjected to centrifugal filtration (centrifugal force, 5,200×g) with a 0.1-μm filter using a microcentrifuge. The saturated n-decane solution obtained was diluted to an adequate concentration, and the solubility of the dye was calculated from a relationship with an extinction coefficient determined beforehand.

SMILES | εC (molar extinction coefficient × concentration of saturated solution) [cm⁻¹]
CCCCC(CC)CN(CC)c1ccc(/N=N/c2snc(CC)c2C#N)c(NC(C)=O)c1 (stereo not drawn) [Dye 11] | 4300
CCCCc1nsc(/N=N/c2ccc(N(CC(C)C)CC(C)C)cc2NC(C)=O)c1C#N [Dye 12] | 4100
CCCCc1nsc(/N=N/c2ccc(N(CC(CC)CCCC)CC(CC)CCCC)cc2C)c1C#N (stereo not drawn) [Dye 13] | 3700
CCCCC(CC)CN(CC(CC)CCCC)c1ccc(/N=N/c2snc(C(C)C)c2C#N)c(C)c1 (stereo not drawn) [Dye 14] | 2800
CCCCC(CC)CN(CC(CC)CCCC)c1ccc(/N=N/c2snc(C)c2C#N)c(C(C)C)c1 (stereo not drawn) [Dye 15] | 8300
CCCCC(CC)CN(CC(CC)CCCC)c1cc(C)c(/N=N/c2snc(C)c2C#N)cc1OC (stereo not drawn) [Dye 16] | 2300
CCCCC(CC)CN(CC(CC)CCCC)c1ccc(/N=N/c2snc(C)c2C#N)cc1 (stereo not drawn) [Dye 17] | 12000
CCOC(=O)c1sc(/N=N/c2ccc(N(CC(C)C)CC(C)C)cc2C)c(C(=O)OCC)c1C [Dye 18] | 1000
CCCCC(CC)CN(CC(CC)CCCC)c1ccc(/N=N/c2sc(C(=O)OCC)c(C)c2C#N)c(CC)c1 (stereo not drawn) [Dye 20] | 6000

same assay, conditions: n-decane solution

SMILES | λmax (absorption-maximum wavelength) [nm]
CCCCC(CC)CN(CC)c1ccc(/N=N/c2snc(CC)c2C#N)c(NC(C)=O)c1 (stereo not drawn) [Dye 11] | 535
CCCCc1nsc(/N=N/c2ccc(N(CC(C)C)CC(C)C)cc2NC(C)=O)c1C#N [Dye 12] | 543
CCCCc1nsc(/N=N/c2ccc(N(CC(CC)CCCC)CC(CC)CCCC)cc2C)c1C#N (stereo not drawn) [Dye 13] | 527
CCCCC(CC)CN(CC(CC)CCCC)c1ccc(/N=N/c2snc(C(C)C)c2C#N)c(C)c1 (stereo not drawn) [Dye 14] | 527
CCCCC(CC)CN(CC(CC)CCCC)c1ccc(/N=N/c2snc(C)c2C#N)c(C(C)C)c1 (stereo not drawn) [Dye 15] | 535
CCCCC(CC)CN(CC(CC)CCCC)c1cc(C)c(/N=N/c2snc(C)c2C#N)cc1OC (stereo not drawn) [Dye 16] | 563
CCCCC(CC)CN(CC(CC)CCCC)c1ccc(/N=N/c2snc(C)c2C#N)cc1 (stereo not drawn) [Dye 17] | 523
CCOC(=O)c1sc(/N=N/c2ccc(N(CC(C)C)CC(C)C)cc2C)c(C(=O)OCC)c1C [Dye 18] | 498
CCCCC(CC)CN(CC(CC)CCCC)c1ccc(/N=N/c2sc(C(=O)OCC)c(C)c2C#N)c(CC)c1 (stereo not drawn) [Dye 20] | 546

same assay, conditions: n-decane; saturated solution, stood at 5° C. for 24 hours, 0.1-μm filter

SMILES | Solubility [%]
CCCCC(CC)CN(CC)c1ccc(/N=N/c2snc(CC)c2C#N)c(NC(C)=O)c1 (stereo not drawn) [Dye 11] | 4.2
CCCCc1nsc(/N=N/c2ccc(N(CC(C)C)CC(C)C)cc2NC(C)=O)c1C#N [Dye 12] | 5.7
CCCCc1nsc(/N=N/c2ccc(N(CC(CC)CCCC)CC(CC)CCCC)cc2C)c1C#N (stereo not drawn) [Dye 13] | 5.9
CCCCC(CC)CN(CC(CC)CCCC)c1ccc(/N=N/c2snc(C(C)C)c2C#N)c(C)c1 (stereo not drawn) [Dye 14] | 4.8
CCCCC(CC)CN(CC(CC)CCCC)c1ccc(/N=N/c2snc(C)c2C#N)c(C(C)C)c1 (stereo not drawn) [Dye 15] | 9.7
CCCCC(CC)CN(CC(CC)CCCC)c1cc(C)c(/N=N/c2snc(C)c2C#N)cc1OC (stereo not drawn) [Dye 16] | 3.7
CCCCC(CC)CN(CC(CC)CCCC)c1ccc(/N=N/c2snc(C)c2C#N)cc1 (stereo not drawn) [Dye 17] | 9.2
CCOC(=O)c1sc(/N=N/c2ccc(N(CC(C)C)CC(C)C)cc2C)c(C(=O)OCC)c1C [Dye 18] | 1.7
CCCCC(CC)CN(CC(CC)CCCC)c1ccc(/N=N/c2sc(C(=O)OCC)c(C)c2C#N)c(CC)c1 (stereo not drawn) [Dye 20] | 9.7
